The test system of the test is Hartley guinea pigs. The note with it: guinea pig, in vivo.

SMILES strings stand for the structures.

On to `CCCCN1CCCCC1C(=O)Nc1c(C)cccc1C` (centres unmarked) [bupivacaine], for which the “Duration, time for full recovery” value was ~90 min.

`CCN(CC)CC(=O)Nc1c(C)cccc1C` [lidocaine]: the “Duration, time for full recovery” value was “≈ 30 minutes”.

These data come from patent US20040259794A1 (priority 1999, published 2004).
